Laboratory results from ChEMBL document CHEMBL5042531, “N-Substituted 5-(1H-Indol-2-yl)-2-methoxyanilines Are Allosteric Inhibitors of the Linoleate Oxygenase Activity of Selected Mammalian ALOX15 Orthologs: Mechanism of Action” (J Med Chem, 2022).
Activity calls are given as the source filed them. No cut-off for these calls is given here.

Experiments:
[1] = species: Oryctolagus cuniculus; assay: Effect on rabbit wild type ALOX15 Ile418Ala mutant-mediated product pattern assessed as reduction in 12-H(p)ETE formation using arachidonic acid as substrate by 4 uM by RP-HPLC analysis
[2] = molecular target: T1, Polyunsaturated fatty acid lipoxygenase ALOX15 (Oryctolagus cuniculus) (UniProt P12530); assay: Effect on rabbit wild type ALOX15-mediated product pattern using arachidonic acid as substrate by 4 uM by RP-HPLC analysis
T1 sequence (whole entry): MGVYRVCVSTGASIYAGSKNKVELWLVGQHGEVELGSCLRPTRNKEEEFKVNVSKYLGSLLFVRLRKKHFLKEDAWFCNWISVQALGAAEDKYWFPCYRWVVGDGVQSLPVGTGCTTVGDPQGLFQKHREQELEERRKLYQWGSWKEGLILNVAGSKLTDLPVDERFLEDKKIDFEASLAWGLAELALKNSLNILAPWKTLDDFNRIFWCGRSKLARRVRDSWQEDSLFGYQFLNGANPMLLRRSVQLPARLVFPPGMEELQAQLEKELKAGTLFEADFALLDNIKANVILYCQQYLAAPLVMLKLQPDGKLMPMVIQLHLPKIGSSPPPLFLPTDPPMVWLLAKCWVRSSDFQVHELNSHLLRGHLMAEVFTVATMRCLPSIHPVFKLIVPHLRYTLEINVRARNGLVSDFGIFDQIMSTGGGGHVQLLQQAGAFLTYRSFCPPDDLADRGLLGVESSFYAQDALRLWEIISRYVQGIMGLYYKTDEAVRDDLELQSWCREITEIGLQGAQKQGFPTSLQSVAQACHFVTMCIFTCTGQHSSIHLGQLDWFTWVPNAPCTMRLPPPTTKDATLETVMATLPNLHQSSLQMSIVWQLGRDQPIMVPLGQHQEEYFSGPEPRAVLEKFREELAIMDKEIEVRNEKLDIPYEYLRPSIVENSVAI

[3] = molecular target: T1, Polyunsaturated fatty acid lipoxygenase ALOX15 (Oryctolagus cuniculus); assay: Inhibition of wild type rabbit N-terminal His-tagged ALOX15 expressed in Escherichia coli assessed as decrease in Kcat using linoleic acid as substrate
[4] = molecular target: T1, Polyunsaturated fatty acid lipoxygenase ALOX15 (Oryctolagus cuniculus); assay: Inhibition of wild type rabbit N-terminal His-tagged ALOX15 expressed in Escherichia coli assessed as decrease in Kcat using arachidonic acid as substrate
[5] = molecular target: T2, Polyunsaturated fatty acid lipoxygenase ALOX15 (Mus musculus) (UniProt P39654); assay: Inhibition of recombinant mouse N-terminal His-tagged ALOX15 expressed in Escherichia coli Rosetta2(DE3)pLysS at 2 uM using arachidonic acid as substrate by HPLC analysis
T2 sequence (whole entry): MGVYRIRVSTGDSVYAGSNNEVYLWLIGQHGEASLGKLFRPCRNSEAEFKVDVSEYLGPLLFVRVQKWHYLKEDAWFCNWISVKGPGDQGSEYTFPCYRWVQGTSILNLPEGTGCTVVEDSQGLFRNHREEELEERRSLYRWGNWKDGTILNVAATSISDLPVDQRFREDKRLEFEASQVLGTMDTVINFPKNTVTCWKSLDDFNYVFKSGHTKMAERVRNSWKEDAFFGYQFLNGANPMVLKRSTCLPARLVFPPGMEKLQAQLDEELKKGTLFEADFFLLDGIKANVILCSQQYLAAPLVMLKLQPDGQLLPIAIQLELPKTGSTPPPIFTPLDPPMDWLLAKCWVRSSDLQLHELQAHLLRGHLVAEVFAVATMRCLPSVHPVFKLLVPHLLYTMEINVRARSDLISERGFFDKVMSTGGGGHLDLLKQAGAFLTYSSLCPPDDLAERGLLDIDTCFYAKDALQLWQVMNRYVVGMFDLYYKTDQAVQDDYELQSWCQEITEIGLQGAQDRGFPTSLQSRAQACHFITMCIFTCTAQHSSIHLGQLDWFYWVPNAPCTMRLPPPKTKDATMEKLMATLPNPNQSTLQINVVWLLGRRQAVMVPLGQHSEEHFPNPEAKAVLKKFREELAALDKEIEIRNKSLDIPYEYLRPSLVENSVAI

[6] = molecular target: T2, Polyunsaturated fatty acid lipoxygenase ALOX15 (Mus musculus); assay: Inhibition of recombinant mouse N-terminal His-tagged ALOX15 expressed in Escherichia coli Rosetta2(DE3)pLysS at 2 uM using linoleic acid as substrate by HPLC analysis
[7] = molecular target: T1, Polyunsaturated fatty acid lipoxygenase ALOX15 (Oryctolagus cuniculus); assay: Inhibition of wild type rabbit N-terminal His-tagged ALOX15 expressed in Escherichia coli assessed as effect on Km using linoleic acid as substrate
[8] = molecular target: T3, Polyunsaturated fatty acid lipoxygenase ALOX15 (Oryctolagus cuniculus, UniProt P12530); assay: Inhibition of wild type rabbit N-terminal His-tagged ALOX15 expressed in Escherichia coli using arachidonic acid as substrate by spectrophotometric assay
T3 sequence (P12530 whole entry): T1 sequence (whole entry)

[9] = molecular target: T1, Polyunsaturated fatty acid lipoxygenase ALOX15 (Oryctolagus cuniculus); assay: Selectivity ratio of IC50 for inhibition of wild type Rabbit N-terminal His-tagged ALOX15 expressed in Escherichia coli using linoleic acid as substrate to IC50 for inhibition of wild type rabbit N-terminal His-tagged ALOX15 expressed in Escherichia coli using arachidonic acid as substrate by spectrophotometric assay
[10] = molecular target: T3, Polyunsaturated fatty acid lipoxygenase ALOX15; assay: Inhibition of wild type rabbit N-terminal His-tagged ALOX15 expressed in Escherichia coli using linoleic acid as substrate by spectrophotometric assay
[11] = molecular target: T3, Polyunsaturated fatty acid lipoxygenase ALOX15; assay: Non-competitive inhibition of wild type rabbit N-terminal His-tagged ALOX15 expressed in Escherichia coli assessed as inhibition constant using linoleic acid as substrate
[12] = molecular target: T3, Polyunsaturated fatty acid lipoxygenase ALOX15; assay: Mixed mode inhibition of wild type Rabbit N-terminal His-tagged ALOX15 expressed in Escherichia coli assessed as inhibition constant using arachidonic acid as substrate
[13] = species: Oryctolagus cuniculus; assay: Effect on rabbit wild type ALOX15 Ile418Ala mutant-mediated product pattern using arachidonic acid as substrate by 4 uM by RP-HPLC analysis
[14] = Inhibition of rabbit N-terminal His-tagged ALOX15 L183E/L192E double mutant expressed in Escherichia coli arachidonic acid as substrate by spectrophotometric assay; design: species or system Oryctolagus cuniculus
[15] = Inhibition of rabbit N-terminal His-tagged ALOX15 L183E/L192E double mutant expressed in Escherichia coli linoleic acid as substrate by spectrophotometric assay; design: species or system Oryctolagus cuniculus
[16] = molecular target: T3, Polyunsaturated fatty acid lipoxygenase ALOX15; assay: Mixed mode inhibition of wild type Rabbit N-terminal His-tagged ALOX15 expressed in Escherichia coli assessed as inhibition constant using linoleic acid as substrate
[17] = molecular target: T1, Polyunsaturated fatty acid lipoxygenase ALOX15 (Oryctolagus cuniculus); assay: (§1) Selectivity ratio of IC50 for inhibition of wild type rabbit N-terminal His-tagged ALOX15 expressed in Escherichia coli using linoleic acid as substrate to IC50 for inhibition of wild type rabbit N-terminal His-tagged ALOX15 expressed in Escherichia coli using arachidonic acid as substrate
[18] = molecular target: T4, Polyunsaturated fatty acid lipoxygenase ALOX15 (Homo sapiens) (UniProt P16050); assay: as §1, with “recombinant human” for “wild type rabbit”, “coli Rosetta2(DE3)pLysS” for “coli”
T4 sequence (whole entry): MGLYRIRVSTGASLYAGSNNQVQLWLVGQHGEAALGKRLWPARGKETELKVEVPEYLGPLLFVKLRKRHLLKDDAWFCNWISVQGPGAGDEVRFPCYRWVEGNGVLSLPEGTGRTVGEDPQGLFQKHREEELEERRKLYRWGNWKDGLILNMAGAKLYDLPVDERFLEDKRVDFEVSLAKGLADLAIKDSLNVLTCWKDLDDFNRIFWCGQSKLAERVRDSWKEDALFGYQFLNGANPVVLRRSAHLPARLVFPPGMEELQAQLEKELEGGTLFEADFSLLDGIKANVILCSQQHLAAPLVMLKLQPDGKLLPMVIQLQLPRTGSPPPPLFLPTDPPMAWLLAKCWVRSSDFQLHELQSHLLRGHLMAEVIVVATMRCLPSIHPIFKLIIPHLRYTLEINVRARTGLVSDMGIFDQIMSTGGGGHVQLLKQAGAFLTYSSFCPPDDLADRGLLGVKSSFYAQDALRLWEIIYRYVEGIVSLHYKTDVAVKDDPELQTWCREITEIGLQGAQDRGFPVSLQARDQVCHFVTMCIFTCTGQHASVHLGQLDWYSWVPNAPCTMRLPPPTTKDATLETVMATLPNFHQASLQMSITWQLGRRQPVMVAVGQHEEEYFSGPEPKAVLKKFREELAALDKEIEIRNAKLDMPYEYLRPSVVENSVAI

[19] = compound: COc1ccc(-c2cc3cc(F)ccc3[nH]2)cc1NS(=O)(=O)NC(=O)OCC(C)C; assay: Inhibition of wild type Rabbit N-terminal His-tagged ALOX15 expressed in Escherichia coli assessed as effect on Km using arachidonic acid as substrate; conditions: Oryctolagus cuniculus

Molecule: CCCCCCCCOC(=O)NS(=O)(=O)Nc1cc(-c2cc3ccccc3[nH]2)ccc1OC
- Activity [1]: Active
- Activity [2]: inactive
- Activity [3]: Active
- inhibition [4]: Active
- inhibition [5]: inactive
- inhibition [6]: inactive
- Activity [7]: Active

Molecule: COc1ccc(-c2cc3cc(F)ccc3[nH]2)cc1NS(=O)(=O)NC(=O)OCC(C)C
- IC50 [8]: 20800 nM
- Ratio IC50 [9]: 0.02
- Activity [3]: Active
- inhibition [4]: Active
- IC50 [10]: 420 nM
- Ki [11]: 290 nM
- Activity [7]: Active

Molecule: C=CCOC(=O)NS(=O)(=O)Nc1cc(-c2cc3ccccc3[nH]2)ccc1OC
- IC50 [8]: 43300 nM
- Ratio IC50 [9]: 0.014
- IC50 [10]: 630 nM

Molecule: CCCCCCCCOC(=O)NS(=O)(=O)Nc1cccc(-c2cc3ccccc3[nH]2)c1
- Ki [12]: 3130 nM
- Activity [2]: inactive
- IC50 [8]: 2790 nM
- Ratio IC50 [9]: 0.55
- IC50 [10]: 1550 nM
- Activity [13]: inactive
- IC50 [14]: 4950 nM
- IC50 [15]: 7020 nM
- Ki [11]: 790 nM
- Ki [16]: 790 nM

Molecule: CCCCCc1ccc(S(=O)(=O)NCCc2nc(-c3ccccn3)[nH]c2-c2ccc(OC)cc2)cc1
- Ratio IC50 [17]: 0.02

Molecule: C=CCOC(=O)NS(=O)(=O)Nc1cc(-c2cc3cc(F)ccc3[nH]2)ccc1OC
- IC50 [8]: 23300 nM
- Ratio IC50 [9]: 0.023
- IC50 [10]: 540 nM

Molecule: COc1ccc(-c2cc3cc(F)c(F)cc3[nH]2)cc1NS(=O)(=O)NC(=O)OCC(C)C
- Ratio IC50 [18]: 0.03

Molecule: C=CCOC(=O)NS(=O)(=O)Nc1cccc(-c2cc3ccccc3[nH]2)c1
- IC50 [8]: > 50000 nM
- IC50 [10]: 15400 nM

Molecule: CCCCCc1ccc(S(=O)(=O)NCCc2c[nH]c3ccccc23)cc1
- Ratio IC50 [17]: 0.8

Molecule: CCCCc1ccc(S(=O)(=O)NCCc2c(-c3ccc(OC)cc3)[nH]c3ccccc23)cc1
- Ratio IC50 [17]: 0.22

Molecule: COc1ccc(-c2cc3ccccc3[nH]2)cc1NS(=O)(=O)NC(=O)OCC(C)C
- IC50 [8]: > 50000 nM
- IC50 [10]: 1450 nM

Molecule: CC(C)COC(=O)NS(=O)(=O)Nc1cccc(-c2cc3ccccc3[nH]2)c1
- IC50 [8]: > 50000 nM
- IC50 [10]: 30000 nM

Molecule: CCCCCCCCOC(=O)NS(=O)(=O)Nc1cc(-c2cc3cc(F)ccc3[nH]2)ccc1OC
- IC50 [8]: 1080 nM
- Ratio IC50 [9]: 0.043
- IC50 [10]: 47 nM

B1: Polyunsaturated fatty acid lipoxygenase ALOX15 (Oryctolagus cuniculus), P12530 (protein)
chain: T1 sequence (whole entry)
- Km [19]: Active
